Measurements taken from US10035790B2, “RORγ modulators” (BRISTOL-MYERS SQUIBB COMPANY, priority 2012, dated 2018).

These compounds were tested against T1, ligand binding domain of human RORγ (A262-S507) (Homo sapiens, UniProt P51449) (assay: General RORγ SPA binding assay (competition with [3H]25-hydroxycholesterol)). Settings: RORγ SPA binding assay, inhibition of [3H]25-hydroxycholesterol binding; read-out: IC50.
T1 construct: made in house; host or cells: E. coli
T1 sequence (P51449 262-507): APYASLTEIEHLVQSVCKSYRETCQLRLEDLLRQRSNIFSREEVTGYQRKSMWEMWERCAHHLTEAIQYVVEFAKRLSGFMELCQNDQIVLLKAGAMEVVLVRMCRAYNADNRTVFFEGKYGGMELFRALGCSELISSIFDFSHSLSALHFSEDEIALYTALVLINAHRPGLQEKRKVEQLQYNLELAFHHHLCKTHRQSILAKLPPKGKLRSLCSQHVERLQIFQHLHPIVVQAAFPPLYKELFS
Method: Example 2 General RORγ SPA Binding Assay
The binding of potential ligands to RORγ is measured by competition with [^3H]25-hydroxycholesterol using a scintillation proximity assay (SPA) binding assay. The ligand binding domain of human RORγ (A262-S507) with an N-terminal His tag is expressed in E. coli and purified using nickel affinity chromotography. 50 nM RORγ (A262-S507) is incubated with test compound at varying concentrations for 15 min at room temperature in PBS buffer containing 0.5% fatty acid free BSA. […] of [^3H]25-hydroxycholesterol is then added, and the reaction is incubated for 15 min. 4 mg/mL of Ysi Copper HIS-TAG SPA Beads (Perkin Elmer) are added, and the mixture is incubated for 30 min. The reaction is read on a MicroBeta Trilux scintillation plate reader (Perkin Elmer). IC50 values are determined from the percentage inhibition of [^3H]25-hydroxycholesterol binding.
`Cc1ncc(C(=NOc2cccc(F)c2)C(F)(F)F)c(C2CCN(C(=O)Cc3c(F)cccc3F)CC2)n1` (mixture of isomers) [Compound B29, (Z)-2-(2,6-Difluorophenyl)-1-(4-(2-methyl-5-(2,2,2-trifluoro-1-(3-fluorophenoxyimino)ethyl)pyrimidin-4-yl)piperidin-1-yl)ethanone] showed an IC50 of 3720 nM.
`CSc1ncc(C(C)=NOc2ccnc(C(F)(F)F)c2)c(C2CCN(C(=O)Nc3c(F)cccc3F)CC2)n1` (mixture of isomers) [Compound B52, N-(2,6-Difluorophenyl)-4-{2-(methylthio)-5-[(1E)-N-{[2-(trifluoromethyl)pyridin-4-yl]oxy}ethanimidoyl]pyrimidin-4-yl}piperidine-1-carboxamide] was tested, and the IC50 was 334 nM.
`Cc1cc(C)cc(COC(C)(COC[C@H](O)CO)c2cnc(C)nc2C2CCN(C(=O)Cc3c(F)cccc3F)CC2)c1` (mixture of isomers) [Compound E9, 2-(2,6-Difluorophenyl)-1-(4-(5-(1-((R)-2,3-dihydroxypropoxy)-2-(3,5-dimethylbenzyloxy)propan-2-yl)-2-methylpyrimidin-4-yl)piperidin-1-yl)ethanone] gave an IC50 of 6.2 nM.
With `Cc1cc(C)cc(CC=Cc2cnc(C)nc2C2CCN(C(=O)Cc3c(F)cccc3F)CC2)c1` (mixture of isomers) [Compound J1, (E)-2-(2,6-Difluorophenyl)-1-(4-(5-(3-(3,5-dimethylphenyl)prop-1-enyl)-2-methylpyrimidin-4-yl)piperidin-1-yl)ethanone] the IC50 was 46 nM.
With `Cc1cc(C)cc(COC(C)(COC[C@H](O)CO)c2cnc(C)nc2C2CCN(C(=O)Cc3c(F)cccc3F)CC2)c1` (stereo in doubt) [Compound E8, 2-(2,6-Difluorophenyl)-1-(4-(5-(1-(2,3-dihydroxypropoxy)-2-(3,5-dimethylbenzyloxy)propan-2-yl)-2-methylpyrimidin-4-yl)piperidin-1-yl)ethanone] the IC50 was 4.1 nM.
For `Cc1cc(C)cc(CNC(=O)c2cnc(C)nc2C2CCN(C(=O)Cc3c(F)cccc3F)CC2)c1` [Compound A1], the IC50 was 4.7 nM.
Compound `Cc1ncc(C(=O)NCc2ccc(Cl)c(Cl)c2)c(C2CCN(C(=O)Cc3c(F)cccc3F)CC2)n1` [Compound A2, N-(3,4-dichlorobenzyl)-4-(1-(2-(2,6-difluorophenyl)acetyl)piperidin-4-yl)-2-methylpyrimidine-5-carboxamide] has an IC50 of 6.8 nM.
With `Cc1cc(C)cc(CNC(=O)c2cnc(C)nc2C2CCN(C(=O)Cc3c(F)cccc3Cl)CC2)c1` [Compound A3, 4-(1-(2-(2-chloro-6-fluorophenyl)acetyl)piperidin-4-yl)-N-(3,5-dimethylbenzyl)-2-methylpyrimidine-5-carboxamide] the IC50 was 7.2 nM.
`Cc1cc(C)cc(CNC(=O)c2cnc(C)nc2C2CCN(C(=O)Cc3c(F)cccc3C(F)(F)F)CC2)c1` [Compound A4, N-(3,5-dimethylbenzyl)-4-(1-(2-(2-fluoro-6-(trifluoromethyl)phenyl)acetyl)piperidin-4-yl)-2-methylpyrimidine-5-carboxamide] showed an IC50 of 7.8 nM.
`Cc1cc(C)cc(CNC(=O)c2cnc(C)nc2C2CCN(C(=O)Cc3ccccc3C(F)(F)F)CC2)c1` [Compound A5, N-(3,5-dimethylbenzyl)-2-methyl-4-(1-(2-(2-(trifluoromethyl)phenyl)acetyl)piperidin-4-yl)pyrimidine-5-carboxamide] gave an IC50 of 8.9 nM.
`O=C(NCc1ccc(Cl)c(Cl)c1)c1cncnc1C1CCN(C(=O)Cc2c(F)cccc2Cl)CC1` [Compound A6, 4-(1-(2-(2-chloro-6-fluorophenyl)acetyl)piperidin-4-yl)-N-(3,4-dichlorobenzyl)pyrimidine-5-carboxamide] was tested, and the IC50 was 26.4 nM.
Work on `Cc1cc(C)cc(CNC(=O)c2cnc(C)nc2C2CCN(C(=O)Cc3ccccc3Cl)CC2)c1` [Compound A7, 4-(1-(2-(2-chlorophenyl)acetyl)piperidin-4-yl)-N-(3,5-dimethylbenzyl)-2-methylpyrimidine-5-carboxamide] yielded an IC50 of 28.1 nM.
